This note sets out measurements from paper PMC8617303 (2021).

Experiment [1] relates to tel22 G-quadruplex (DNA, G4) AGGGTTAGGGTTAGGGTTAGGG
Kind of experiment: fluorescence titration, plate reader. The note with it: 2 nM compound.

Experiment [2] deals with c-myc mutant DNA (DNA, single strand) TGAAAATAATGAAAATAAAAAAGA
The experiment is described as follows: ITC. The note with it: K+ (50 mM KCl, 10 mM potassium phosphate); pH 7.0, 25 °C; ~10^4 fold lower affinity than c-myc G4.

For experiment [3], the system named is c-myc G-quadruplex (DNA, G4) TGAGGGTGGTGAGGGTGGGGAAGG
The experiment is described as follows: fluorescence titration, plate reader. The settings on record: 2 nM compound; site 1 of 2.

The test system of experiment [4] is c-kit21 G-quadruplex (DNA, G4) CGGGCGGGGCGCGAGGAAAA
Kind of experiment: fluorescence titration, plate reader. The note with it: 2 nM compound; site 1 of 2.

For experiment [5], the system named is bcl-2 G-quadruplex (DNA, G4) AGGGGCGGGCGCGGGAGGAAGGGGGCGGGAGCGGGGCTG
The experiment is described as follows: fluorescence titration, plate reader. The settings on record: 2 nM compound; site 1 of 2.

Experiment [6] relates to c-myc mutant DNA (DNA, single strand) TGAAAATAATGAAAATAAAAAAGA
The experiment is described as follows: fluorescence titration, plate reader. The note with it: 2 nM compound.

For experiment [7], the system named is c-myc duplex (DNA, duplex) TGAGGGTGGTGAGGGTGGGGAAGG/CCTTCCCCACCCTCACCACCCTCA
The experiment is described as follows: fluorescence titration, plate reader. The note with it: 2 nM compound; site 1 of 2.

The test system of experiment [8] is c-myc mutant DNA (DNA, single strand) TGAAAATAATGAAAATAAAAAAGA
The experiment is described as follows: gel retardation, native PAGE. The note with it: K+ (50 mM KCl, 10 mM potassium phosphate); pH 7.0, 25 °C; 10 µM DNA; up to 100 µM compound.

In experiment [9] the test system is c-myc G-quadruplex (DNA, G4) TGAGGGTGGTGAGGGTGGGGAAGG
Kind of experiment: ITC. The note with it: K+ (50 mM KCl, 10 mM potassium phosphate); pH 7.0, 25 °C; site 1 of 2.

Experiment [10] has as its system c-myc duplex (DNA, duplex) TGAGGGTGGTGAGGGTGGGGAAGG/CCTTCCCCACCCTCACCACCCTCA
The experiment is described as follows: ITC. The settings on record: K+ (50 mM KCl, 10 mM potassium phosphate); pH 7.0, 25 °C; ~10^4 fold lower affinity than c-myc G4.

For `O=S(=O)(NCCNS(=O)(=O)c1ccccc1)c1ccccc1`, the Kd1 in [1] (site 1 of 2) came to 0.19 ± 0.02 µM; in experiment [3], 0.002 ± 0.001 µM; in [4] it was 4.86 ± 0.02 µM; in [5], 0.024 ± 0.009 µM; in experiment [7], 1.81 ± 0.09 µM. Besides, the binding result is given as “weak” in [2], “no” in experiment [8] and “weak” in [10]. This compound registered a Kd2 in [6] of 0.195 ± 0.04 µM. Besides, in [9], the Ka1 is listed as 3.81 × 10^7 ± 0.01 M^-1.
Turning to `O=C(/C=C/C=C/c1ccc2c(c1)OCO2)N1CCCCC1`, in experiment [9], the Ka1 is recorded as 4.56 × 10^5 ± 0.03 M^-1.
In experiment [3], `O=C(CC(=O)Nc1ccccc1)Nc1ccccc1` came in with a Kd1 of 4.61 ± 0.05 µM.
Still for that read-out and setting: in the case of `Cc1ccc(NC(=S)Nc2ccccc2)cc1` it was 1.34 ± 0.13 µM; in that of `Oc1ccccc1NCCNc1ccccc1O`, 2.56 ± 0.02 µM; in that of `CC(=NNC(=S)NN=C(C)c1ccccc1)c1ccccc1`, 2.86 ± 0.03 µM.
In [1] (stronger of two sites, printed as Kd2 (Kd1 3.47)), `CC(C)=NOC(=O)Nc1ccc(Cl)cc1` displayed a Kd2 of 2.89 ± 0.03 µM. For the same compound, the Kd1 in experiment [3] turned out to be 0.010 ± 0.003 µM; in experiment [4], 1.71 ± 0.005 µM; in experiment [5], 0.761 ± 0.01 µM; in [6] (site 1 of 2) it was 0.023 ± 0.03 µM; in [7], 0.559 ± 0.03 µM. For the same compound, the Ka1 in experiment [9] is recorded as 3.34 × 10^5 ± 0.4 M^-1.
Consider `CC(CCN=Cc1ccccc1O)N=Cc1ccccc1O` (centres unmarked), for which the Kd1 in experiment [3] was 3.76 ± 0.03 µM.
